Experiment [1] relates to GIRK1/GIRK4 channels. The settings on record: ref Hashimoto et al., [2008]; Machida et al., [2011]; cited from earlier work.
In experiment [2] the test system is atrial fibrillation. As to conditions: ref Hashimoto et al., [2008]; Machida et al., [2011]; cited from earlier work.
Experiment [3] concerns the target T1, GIRK1/GIRK2 channels (AtT20 cells) (Mus musculus, UniProt P48542+P63250).
T1 sequence (P63250 1-501): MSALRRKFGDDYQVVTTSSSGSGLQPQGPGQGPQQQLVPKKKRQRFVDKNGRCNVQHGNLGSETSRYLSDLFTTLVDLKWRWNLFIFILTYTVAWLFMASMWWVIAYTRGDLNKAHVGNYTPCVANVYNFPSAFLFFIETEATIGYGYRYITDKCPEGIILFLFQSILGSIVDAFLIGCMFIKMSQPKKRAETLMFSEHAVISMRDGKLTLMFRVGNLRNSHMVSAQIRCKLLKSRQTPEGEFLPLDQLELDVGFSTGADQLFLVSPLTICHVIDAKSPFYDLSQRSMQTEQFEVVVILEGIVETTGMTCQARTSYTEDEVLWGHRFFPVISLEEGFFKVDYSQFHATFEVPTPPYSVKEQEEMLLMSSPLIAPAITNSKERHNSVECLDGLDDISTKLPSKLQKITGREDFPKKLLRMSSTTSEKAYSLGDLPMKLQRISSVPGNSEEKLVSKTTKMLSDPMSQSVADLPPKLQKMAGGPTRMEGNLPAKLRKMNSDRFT
T1 sequence (P48542 1-425): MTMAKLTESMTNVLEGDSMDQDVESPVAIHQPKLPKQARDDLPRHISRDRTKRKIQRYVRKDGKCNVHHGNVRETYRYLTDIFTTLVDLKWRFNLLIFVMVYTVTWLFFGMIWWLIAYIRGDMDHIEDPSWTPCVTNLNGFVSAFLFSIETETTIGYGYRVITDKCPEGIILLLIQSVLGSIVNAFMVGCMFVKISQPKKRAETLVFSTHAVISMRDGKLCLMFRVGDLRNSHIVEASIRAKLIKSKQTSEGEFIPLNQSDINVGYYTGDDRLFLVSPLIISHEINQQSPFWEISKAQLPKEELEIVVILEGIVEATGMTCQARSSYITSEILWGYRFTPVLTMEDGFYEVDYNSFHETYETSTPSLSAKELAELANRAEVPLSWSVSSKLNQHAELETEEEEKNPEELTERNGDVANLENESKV
In words: GIRK channel fluorescent plate reader assay. Type of experiment: cell-based.

Experiment [4] deals with T2, GIRK1/GIRK4 channel (cardiac HL-1 cells) (Mus musculus, UniProt P48545+P63250).
T2 sequence (P63250 1-501): T1 sequence (P63250 1-501)
T2 sequence (P48545 1-419): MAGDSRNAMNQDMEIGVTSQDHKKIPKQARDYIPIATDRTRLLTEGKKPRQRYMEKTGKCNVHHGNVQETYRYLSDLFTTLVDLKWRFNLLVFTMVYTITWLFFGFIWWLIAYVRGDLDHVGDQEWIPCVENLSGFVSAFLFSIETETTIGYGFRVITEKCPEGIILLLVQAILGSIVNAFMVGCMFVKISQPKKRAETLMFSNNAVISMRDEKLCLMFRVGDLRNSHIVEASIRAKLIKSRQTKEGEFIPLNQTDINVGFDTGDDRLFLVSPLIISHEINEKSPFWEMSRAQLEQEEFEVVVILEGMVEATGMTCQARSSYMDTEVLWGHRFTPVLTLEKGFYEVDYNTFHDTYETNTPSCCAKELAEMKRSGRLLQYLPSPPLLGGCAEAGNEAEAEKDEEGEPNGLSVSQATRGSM
Nature of the experiment: GIRK channel fluorescent plate reader assay. The experiment is classed as cell-based.

Results on 9 compounds are retold here after paper PMC3204421 (Frontiers in Pharmacology, 2011).

On to `Cc1cc(CO)nc2cc3c(cc12)OC(C)(C)[C@H](O)[C@H]3NCCc1ccccc1` [NTC-801], for which the “concentration range of GIRK1/GIRK4 channel block” value in experiment [1] is on record as “nanomolar concentrations”. In experiment [2], the “effect in canine model of atrial fibrillation” value is recorded as “converted AF to sinus rhythm”.
As for `N=C(N)NC(=O)c1nc(Cl)c(N)nc1N` [amiloride], the “GIRK channel blocking effect” value in experiment [3] (tested up to 10 μM, AtT20 and HL-1 cells screened, cell line not specified) is reported as “no blocking effect”.
Regarding `[Ba+2].[Cl-].[Cl-]` [BaCl2], the “reduction of the somatostatin-mediated fluorescent change” value was determined as 67 ± 4% in experiment [3] (0.5 mM, AtT20 cells, n = 6 wells) and 92 ± 2% in experiment [3] (1 mM, AtT20 cells, n = 6 wells). Further, the “inhibition of the somatostatin-mediated fluorescent change” value in experiment [3] (2 mM, 5 min pretreatment, AtT20 cells) is recorded as “complete inhibition”.
Consider `Cc1nc2c(OCc3ccccc3)cccn2c1CC#N` [SCH-28080, 2-methyl-8-(phenylmethoxy)imidazo[1,2-A]pyridine-3-acetonitrile], for which the 50% inhibitory concentration (IC50) is 200 nM in experiment [3] and 300 nM in experiment [4].
Turning to `Nc1ncnc2c1ncn2[C@@H]1O[C@H](CO)[C@@H](O)[C@H]1O` [adenosine], the “change in the fluorescent signal” value in experiment [3] (10 μM, AtT20 cells) is “no change”.
For the compound `C[N+](C)(C)CCOC(N)=O` [carbachol], a half-maximal effect in experiment [3] (EC50) was put at 1000 nM. Further, the peak fluorescent change in experiment [3] (AtT20 cells, n = 6 wells) is −0.037.
Regarding `[Cl-].[K+]` [KCl], the “fluorescent change (F/FO)” value is recorded as 0.058 in experiment [3] (10 mM KCl, depolarization, AtT20 cells); 0.13 in experiment [3] (20 mM KCl, depolarization, AtT20 cells); 0.15 in experiment [3] (30 mM KCl, depolarization, AtT20 cells).
For `COc1ccc2[nH]c([S+]([O-])Cc3ncc(C)c(OC)c3C)nc2c1` (stereo not shown) [omeprazole], in experiment [3] (cell line not specified (AtT20 / HL-1), Figure 5), the “change in GPCR-sensitive fluorescence during treatment” value was “no change in fluorescence”.
Turning to `C[C@H](N)C(=O)NCC(=O)N[C@H]1CSSC[C@@H](C(=O)O)NC(=O)[C@H](CO)NC(=O)[C@H]([C@@H](C)O)NC(=O)[C@H](Cc2ccccc2)NC(=O)[C@H]([C@@H](C)O)NC(=O)[C@H](CCCCN)NC(=O)[C@H](Cc2c[nH]c3ccccc23)NC(=O)[C@H](Cc2ccccc2)NC(=O)[C@H](Cc2ccccc2)NC(=O)[C@H](CC(N)=O)NC(=O)[C@H](CCCCN)NC1=O` [somatostatin], the “fluorescent change (F/FO)” value in experiment [3] (200 nM, AtT20 cells, n = 6 wells) was −0.088.

As usually defined, the IC50 is the concentration that inhibits the measured activity by half. The low end stands for greater potency in that assay, the high end for weaker potency in that assay. A word on the EC50: it is the concentration that produces a half-maximal response. A low value points to a more potent agent.
